In patent US6228889A, “Methods for treatment of conditions associated with lactosylceramide” (priority 1999, dated 2001):

Experiments:
restenosis = conditions: patients, reported in literature; cited from earlier work
NF-kB = NF-kB DNA binding assay (gel mobility shift) in Eahy 926 cells; format: cell-based, human; conditions: 5 μM LacCer
CD11a/CD18 (LFA-1) = experiment: Flowcytometric analysis of LFA-1 expression on PMNs; format: cell-based, human; conditions: 20 minutes
Method: (§1) 10. Flowcytometric Analysis of the Expression of Adhesion Molecules on PMNs. Treated PMNs were rapidly cooled on ice, washed twice with cold washing buffer (PBS containing 0.1% BSA and 0.1% sodium azide), and then incubated with either monoclonal (m) anti-human (h) LFA-1 (CD11 a), m-anti-h Mac-1 (CD 11b), m-anti-h p150,95 (CD 11 c) or m-anti-h L-selectin (all from PharMingen., San Diego, Calif.), followed by FITC-conjugated m-anti-mouse IgG (American Qualex, San Clement, Calif.). The PMNs were gated by forward and side scattering for analysis by FACScan (Becton Dickinson, Cockeysville, Md.).

PMNs [1] = experiment: ROM generation by PMNs (DCFH-DA); format: cell-based, human; conditions: DCFH-DA, 45 minutes
p150,95 = experiment: Flowcytometric analysis of p150,95 expression on PMNs; format: cell-based, human; conditions: 20 minutes
Method: as §1

Eahy 926 cells = experiment: Superoxide production by intact Eahy 926 (lucigenin chemiluminescence); format: cell-based, human; conditions: 5 μM LacCer after 5 minutes, intact Eahy 926 cells
PMNs [2] = experiment: Superoxide generation in PMNs (lucigenin); format: cell-based, human; conditions: 100 nmol LacCer 20 minutes, no inhibitor, PMNs
VCAM-1 = VCAM-1 expression in Eahy 926; format: cell-based, human; conditions: Eahy 926, LacCer
P-selectin = P-selectin expression in Eahy 926; format: cell-based, human; conditions: Eahy 926, LacCer
NADH oxidase = NADH oxidase assay in membrane preparations of Eahy 926 cells; format: biochemical, human; conditions: 5 μM LacCer
[3] = tested on: PMN adhesion to unstimulated endothelial cells; experiment: PMN-endothelial adhesion assay; format: cell-based, human; conditions: PMNs incubated with LacCer, washed
Method: 12. PMN-Endothelial Adhesion Assay. PMNs were labeled fluorescently by incubation with 5 μmol/L Calcein-AM (Molecular Probes) in calcium-free PBS for 20 minutes at 37° C., washed and resuspended in Hanks' balanced salt solution (Gibco) containing 0.2% bovine serum albumin (BSA). These PMNs were then treated with LacCer (or vehicle, 0.05% DMSO), washed 3 times with PBS and then plated on the unstimulated ec monolayers, which had been grown to confluence in 24-well plates. The PMNs (600 μL of 2×10^6 /mL/well) then were incubated with the ecs for 30 minutes at 37° C. Non-adherent PMNs were then removed by gentle washing 3 times with PBS. The residual adherent PMNs (and ecs) were then lysed using 4mmol/L Zwittergent Calbiochem, La Jolla, Calif.) and the plates read on a fluorescence plate reader (Millipore) at EX 480 nm/EM 530 nm. The number of adherent PMNs were expressed as number of PMN/mm^2 ec monolayer, based on the mean fluorescent intensity of each PMN, as determined from a standard curve. 13. Additional Methods. LacCer, ceramide and […] (all from Sigma) were prepared as described in examples below, and used as putative agonists for the stimulation of PMN adhesion molecule expression, assayed by FACScan. […]

PMNs [4] = experiment: [3H] arachidonic acid release from labeled PMNs; format: cell-based, human; conditions: 100 nmol/L LacCer, 30 minutes at 37° C.
NADPH oxidase = conditions: eahy 926 cell membranes, 5 min, 5 µM
[5] = tested on: neutrophil adhesion to Eahy 926 cells; experiment: Confocal microscopic study of adhesion of human neutrophils to Eahy 926 endothelial cells; format: cell-based; conditions: LacCer 5 μM, 4 hours
Mac-1 (CD11b/CD18) = conditions: pmns, 20 min, 0.1 µM
L-selectin = experiment: Flowcytometric analysis of L-selectin expression on PMNs; format: cell-based, human; conditions: 20 minutes
Method: as §1

## CC(C)(Sc1cc(C(C)(C)C)c(O)c(C(C)(C)C)c1)Sc1cc(C(C)(C)C)c(O)c(C(C)(C)C)c1 [probucol]
restenosis
  restenosis after angioplasty: reduce restenosis in some patients

## lactosylceramide [LacCer]
NF-kB
  nuclear concentration of NF-kB: time dependent increase
CD11a/CD18 (LFA-1); LacCer higher concentrations
  level of CD11a/CD18 (LFA-1): downregulated
CD11a/CD18 (LFA-1); LacCer lower concentrations
  level of CD11a/CD18 (LFA-1): did not change
PMNs [1]
  ROM stimulation in PMNs: positive, dose-dependent response
p150,95; LacCer 200 nmol/L
  level of p150,95: decreased
p150,95; LacCer 50-100 nmol/L
  level of p150,95: increased
Eahy 926 cells
  maximum generation of O2-: 2.7 nmol/mni/mg protein
PMNs [2]
  superoxide levels compared with controls: about two
VCAM-1
  expression of VCAM-1: did not stimulate measurable expression
P-selectin
  expression of P-selectin: did not stimulate measurable expression
ICAM-1; eahy 926 cells, 6 h, 5 µM
  maximal expression of ICAM-1 as compared to control: 7 fold
ICAM-1; intact Eahy 926 cells, GSLs 10 μM, gangliosides up to 50 μM
  stimulation of ICAM-1 expression by GSLs: specifically stimulated
NADH oxidase
  NADH oxidase activity in LacCer stimulated/non stimulated membrane preparations: remained unchanged
[3]
  PMN adhesion to unstimulated ec monolayers: increased
PMNs [4]
  [3H] AA release from labeled PMNs: increased
NADPH oxidase
  stimulation of NADPH oxidase activity versus non-stimulated cell membrane preparations: about 3 fold
[5]
  adhesion of neutrophils to the endothelial cell monolayer: markedly stimulated
Mac-1 (CD11b/CD18)
  maximum stimulation of Mac-1 level compared to control: 2.5 fold
L-selectin; LacCer higher concentrations
  level of L-selectin: downregulated
L-selectin; LacCer lower concentrations
  level of L-selectin: did not change
